# Measured values taken from PubChem BioAssay (NCI).
#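 Following 48 hours of exposure in 96-well plates, responses at five concentrations were used to interpolate endpoints linearly. The concentration for full growth arrest is given as TGI.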
# Assays:
# Test in all cases: NCI-60 cell line screen, 48 h
# [1] = test system: MALME-3M melanoma
# [2] = test system: UACC-62 melanoma
# [3] = test system: TK-10 renal
# [4] = test system: NCI-H226 lung
# [5] = test system: MOLT-4 leukemia
# [6] = test system: OVCAR-5 ovarian
# [7] = test system: NCI-H522 lung
# [8] = test system: KM12 colon
# [9] = test system: OVCAR-8 ovarian
# [10] = test system: EKVX NSCLC
# [11] = test system: SK-OV-3 ovarian
# [12] = test system: T-47D breast
# [13] = test system: A549 NSCLC
# [14] = test system: SF-268 CNS
# [15] = test system: MDA-MB-435
# [16] = test system: UACC-257 melanoma
# [17] = test system: HCC-2998 colon
# [18] = test system: HCT-15 colon
# [19] = test system: HS 578T breast
# [20] = test system: DU-145 prostate
# [21] = test system: BT-549 breast
# [22] = test system: IGROV1 ovarian
# [23] = test system: CCRF-CEM leukemia
# [24] = test system: SK-MEL-28 melanoma
# [25] = test system: MDA-N
# [26] = test system: SNB-19 CNS
# [27] = test system: ACHN renal
# [28] = test system: UO-31 renal
# [29] = test system: M14 melanoma
# [30] = test system: SF-295 CNS
# [31] = test system: RXF 393 renal
# [32] = test system: OVCAR-4 ovarian
# [33] = test system: SK-MEL-2 melanoma
# [34] = test system: HOP-62 NSCLC
# [35] = test system: RPMI-8226 leukemia
# [36] = test system: A498 renal
# [37] = test system: NCI-H23 lung
# [38] = test system: SF-539 CNS
# [39] = test system: LOX IMVI melanoma
# [40] = test system: PC-3 prostate
# [41] = test system: OVCAR-3 ovarian
# [42] = test system: HOP-92 NSCLC
# [43] = test system: NCI-H460 lung
# [44] = test system: NCI/ADR-RES ovarian
# [45] = test system: SNB-75 CNS
# [46] = test system: 786-0 renal
# [47] = test system: SR leukemia
# [48] = test system: HT29 colon
# [49] = test system: COLO 205 colon
# [50] = test system: SN12C renal
# [51] = test system: HCT-116 colon
# [52] = test system: U251 CNS
# [53] = test system: MDA-MB-231 breast
# [54] = test system: K-562 leukemia
# [55] = test system: SK-MEL-5 melanoma
# [56] = test system: SW-620 colon
# [57] = test system: MCF7 breast
# [58] = test system: CAKI-1 renal
structure (smiles),measurement,setting,value
COC(=O)C#CC1(O)C=CC(=O)C=C1,TGI,[1],4.48 µM
same,TGI,[2],2.64 µM
same,TGI,[3],5.22 µM
same,TGI,[4],20.8 µM
same,TGI,[5],0.0794 µM
same,TGI,[6],10.4 µM
same,TGI,[7],0.552 µM
same,TGI,[8],2.3 µM
same,TGI,[9],15.4 µM
same,TGI,[10],24.5 µM
same,TGI,[11],> 100 µM
same,TGI,[12],3.74 µM
same,TGI,[13],> 48.1 µM
same,TGI,[14],3.18 µM
same,TGI,[15],1.28 µM
same,TGI,[16],3.64 µM
same,TGI,[17],8.15 µM
same,TGI,[18],4.32 µM
same,TGI,[19],16.1 µM
same,TGI,[20],16.7 µM
same,TGI,[21],3.42 µM
same,TGI,[22],2.85 µM
same,TGI,[23],0.758 µM
same,TGI,[24],1.67 µM
same,TGI,[25],> 34.5 µM
same,TGI,[26],17.9 µM
same,TGI,[27],10.1 µM
same,TGI,[28],10.6 µM
same,TGI,[29],12.1 µM
same,TGI,[30],> 41.8 µM
same,TGI,[31],3.76 µM
same,TGI,[32],17 µM
same,TGI,[33],7.64 µM
same,TGI,[34],15.7 µM
same,TGI,[35],2.67 µM
same,TGI,[36],> 100 µM
same,TGI,[37],6.28 µM
same,TGI,[38],> 35.1 µM
same,TGI,[39],1.9 µM
same,TGI,[40],5.76 µM
same,TGI,[41],1.6 µM
same,TGI,[42],2.29 µM
same,TGI,[43],13.9 µM
same,TGI,[44],> 100 µM
same,TGI,[45],18.1 µM
same,TGI,[46],1.82 µM
same,TGI,[47],15.2 µM
same,TGI,[48],13.5 µM
COC(=O)[C@@H](N1C(=O)c2ccccc2C1=O)C1(C)CC(Cl)=NO1 (stereo partly specified),TGI,[1],> 100 µM
same,TGI,[2],> 100 µM
same,TGI,[3],82.4 µM
same,TGI,[4],> 100 µM
same,TGI,[6],> 100 µM
same,TGI,[49],> 100 µM
same,TGI,[7],79.1 µM
same,TGI,[8],> 100 µM
same,TGI,[9],37 µM
same,TGI,[10],> 100 µM
same,TGI,[11],> 100 µM
same,TGI,[12],> 100 µM
same,TGI,[13],> 100 µM
same,TGI,[14],76.9 µM
same,TGI,[15],> 100 µM
same,TGI,[16],> 100 µM
same,TGI,[17],> 100 µM
same,TGI,[18],> 100 µM
same,TGI,[50],> 100 µM
same,TGI,[19],75.3 µM
same,TGI,[20],> 100 µM
same,TGI,[51],> 100 µM
same,TGI,[21],> 100 µM
same,TGI,[22],58.2 µM
same,TGI,[23],> 100 µM
same,TGI,[24],> 100 µM
same,TGI,[25],> 100 µM
same,TGI,[26],56.2 µM
same,TGI,[27],> 100 µM
same,TGI,[52],77.2 µM
same,TGI,[28],> 100 µM
same,TGI,[53],60.3 µM
same,TGI,[29],> 100 µM
same,TGI,[30],74.3 µM
same,TGI,[31],> 100 µM
same,TGI,[32],> 100 µM
same,TGI,[33],> 100 µM
same,TGI,[34],38.9 µM
same,TGI,[35],> 100 µM
same,TGI,[36],99.7 µM
same,TGI,[54],> 100 µM
same,TGI,[37],> 100 µM
same,TGI,[55],> 100 µM
same,TGI,[56],> 100 µM
same,TGI,[40],> 100 µM
same,TGI,[41],> 100 µM
same,TGI,[43],> 100 µM
same,TGI,[44],68.2 µM
same,TGI,[57],> 100 µM
same,TGI,[45],35.9 µM
same,TGI,[46],> 100 µM
same,TGI,[48],> 100 µM
same,TGI,[58],83.7 µM
